“Also recorded” adds a separate entry of the source.
Legend:
[1] = system: calcium mobilization from bone; assay: bone calcium mobilization in vitamin D-deficient rats on low calcium diet; format: in vivo, rat; conditions: for bone calcium mobilization activity: in words, no dose named
Protocol: Calcium mobilization from bone and intestinal calcium absorption in vitamin D-deficient animals. Using vitamin D-deficient rats on a low calcium diet (0.02%), the activities of these compounds in intestine and bone were tested.

[2] = system: intestinal calcium transport; assay: intestinal calcium transport, everted gut sac method, vitamin D-deficient rats; format: in vivo, rat; conditions: for intestinal calcium transport activity: vitamin D-deficient rats, in words, no dose named
Protocol: Intestinal calcium transport was evaluated in the same groups of animals using the everted gut sac method (FIG. 5).

HL-60 cells = assay: HL-60 cell differentiation into monocytes; format: cell-based; conditions: for EC50: HL60 cells (FIG. 3)
Protocol: The differentiation of HL-60 promyelocytic into monocytes was determined as described by Ostrem et al (J. Biol. Chem. 262, 14164-14171, 1987).
VDR binding and HL60 cell differentiation.

[3] = target: T1, full-length recombinant rat vitamin D receptor (Rattus norvegicus, UniProt P13053); assay: competition with [3H]-1,25(OH)2D3 for binding to vitamin D receptor; conditions: full-length recombinant rat vitamin D receptor (FIG. 2)
T1 construct: the full-length recombinant rat vitamin D receptor
T1 sequence (P13053 1-423): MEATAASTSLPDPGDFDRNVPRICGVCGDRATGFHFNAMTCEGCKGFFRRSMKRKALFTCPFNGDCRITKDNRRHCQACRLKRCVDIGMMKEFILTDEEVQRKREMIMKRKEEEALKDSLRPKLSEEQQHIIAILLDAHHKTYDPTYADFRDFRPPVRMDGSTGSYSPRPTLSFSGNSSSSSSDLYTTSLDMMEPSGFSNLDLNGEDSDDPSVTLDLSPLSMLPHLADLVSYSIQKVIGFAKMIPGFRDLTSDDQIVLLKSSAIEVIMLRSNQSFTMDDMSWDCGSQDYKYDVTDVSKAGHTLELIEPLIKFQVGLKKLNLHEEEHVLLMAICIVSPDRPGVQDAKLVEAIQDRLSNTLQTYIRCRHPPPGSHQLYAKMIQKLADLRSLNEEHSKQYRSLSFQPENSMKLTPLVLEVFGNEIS

[4] = serum calcium response in vitamin D-sufficient normal female rats on normal calcium diet; format: in vivo, rat; conditions: for serum calcium (hypercalcemia): 5000 pmol/day for 7 days, oral or intraperitoneal, normal female rats, 4 hours after last dose
Protocol: Serum calcium response in vitamin D-sufficient animals on a normal calcium diet. […] The doses were administered to two separate groups of animals by either the oral or intraperitoneal route, and serum calcium levels were assessed 4 hours after the last dose.

[5] = system: porcine intestinal vitamin D receptor; assay: binding to porcine intestinal vitamin D receptor; conditions: compared to standard 1,25-(OH)2D3 (FIG. 2)
Source text: The battery of in vitro and in vivo assays described in […] et al (J. Med.

SMILES | serum calcium levels (bone calcium mobilization) ([1]; low calcium diet (0.02%), all dosages) | intestinal calcium transport ([2]; 260 pmol/day) | EC50 (HL-60 cells) | mobilization of bone calcium ([1]; 260 pmol/day for 7 days) | mobilization of bone calcium ([1]; 1300 pmol/day (5-fold)) | bone calcium mobilization activity ([1]; low calcium diet (0.02%)) | intestinal calcium transport ([2]; 1300 pmol/day (5-fold higher)) | Ki [3] | intestinal calcium transport ([2]; doses higher than 1300 pmol/day) | intestinal calcium transport activity [2] | serum calcium (hypercalcemia) [4] | EC50 (HL-60 cells; Homo sapiens, HL-60) | potency on HL-60 differentiation compared to 1,25(OH)2D3 (HL-60 cells; in words, FIG. 3) | binding to the porcine receptor as compared to 1,25-(OH)2D3 [5] | calcemic activity from serum calcium after chronic doses ([4]; rats, chronic doses (FIG. 6), in words)
C=C1/C(=C\C=C2/CCC[C@]3(C)[C@@H]([C@H](C)CCCC(C)(C)O)CC[C@@H]23)C[C@@H](O)C[C@@H]1O [1,25(OH)2D3, 1α,25-dihydroxyvitamin D3, reference compound] | increased serum calcium levels at all dosages | promotes a significant increase | 5 nM | – | – | – | – | – | – | – | – | – | – | – | –
C=C1[C@H](O)CC(=C/C=C2\CCC[C@]3(C)[C@@H]([C@@H](C)CC)CC[C@@H]23)C[C@H]1O [2-MbisP, (20S)-1α-hydroxy-2-methylene-19-nor-bishomopregnacalciferol] | – | do not promote intestinal calcium transport | 7 nM | did not result in mobilization of bone calcium | without effect | little, if any, activity | do not promote intestinal calcium transport | 0.6 nM | – | – | – | – | – | – | –
C=C1C(O)CC(=CC=C2CCCC3(C)C2CCC3C(C)C)CC1O (stereo not drawn) [2-MP, 1α-hydroxy-2-methylene-19-nor-homopregnacalciferol] | – | calcium transport activity equivalent to 1,25(OH)2D3 | 6 nM | did not result in mobilization of bone calcium | without effect | little, if any, activity | calcium transport activity equivalent to 1,25(OH)2D3 | 0.3 nM | decreased this activity | – | – | – | – | – | –
C[C@H](CCCC(C)(C)O)[C@H]1CC[C@H]2/C(=C/C=C3C[C@@H](O)C[C@H](O)C3)CCC[C@]12C [1,25(OH)2 19-nor-D3, 1α,25-dihydroxy-19-nor-vitamin D3, reference compound] | – | – | 4 nM | did not result in mobilization of bone calcium | – | – | – | 0.2 nM | – | devoid of intestinal calcium transport activity | produced frank hypercalcemia | – | – | – | –
C=C1[C@H](O)CC(=C/C=C2\CCC[C@]3(C)C(CC)CCC23)C[C@H]1O (stereo partly drawn) [2-Mpregna, 1α-hydroxy-2-methylene-19-nor-pregnacalciferol] | – | do not promote intestinal calcium transport | – | did not result in mobilization of bone calcium | without effect | very little bone calcium mobilization activity; also recorded: little, if any, activity | do not promote intestinal calcium transport | 0.3 nM | – | very little activity | no increase in serum calcium | 17 nM | almost as potent as 1,25(OH)2D3 | bound equally well | very little calcemic activity
